From US5840684A, “Glycopeptide antibiotic derivatives” (Eli Lilly and Company, priority 1995, dated 1998)
Values after ≈ are worked out from the molar mass of the structure shown.

Tests used:
[1] = tested on: Staphylococcus haemolyticus 415; experiment: broth micro-dilution MIC; format: cell-based
Protocol: (§1) The formula I compounds have in vitro and in vivo activity against Gram-positive pathogenic bacteria. The MIC's were determined using a standard broth micro-dilution assay.

[2] = tested on: Staphylococcus haemolyticus 105; experiment: broth micro-dilution MIC; format: cell-based
Protocol: as §1

Entercoccus faecium 2041 = experiment: broth micro-dilution MIC; format: cell-based; settings: Entercoccus faecium 2041
Protocol: as §1

[3] = tested on: Haemophilus influenzae RD; experiment: broth micro-dilution MIC; format: cell-based; settings: Haemophilus influenzae RD
Protocol: as §1

Entercoccus faecium 180 = experiment: broth micro-dilution MIC; format: cell-based; settings: Entercoccus faecium 180
Protocol: as §1

[4] = tested on: Enterococcus gallinarum 245; experiment: broth micro-dilution MIC; format: cell-based; settings: Enterococcus gallinarum 245
Protocol: as §1

[5] = tested on: Staphylococcus epidermidis 270; experiment: broth micro-dilution MIC; format: cell-based
Protocol: as §1

[6] = tested on: Staphylococcus aureus 489; experiment: broth micro-dilution MIC; format: cell-based
Protocol: (§2) The MIC's were determined using a standard broth micro-dilution assay.

[7] = tested on: Entercoccus faecium 180-1; experiment: broth micro-dilution MIC; format: cell-based
Protocol: as §2

[8] = tested on: Staphylococcus aureus 447; experiment: broth micro-dilution MIC; format: cell-based
Protocol: as §2

[9] = tested on: Staphylococcus aureus X778; experiment: broth micro-dilution MIC; format: cell-based
Protocol: as §2

[10] = tested on: Staphylococcus aureus X400; experiment: broth micro-dilution MIC; format: cell-based
Protocol: as §2

[11] = tested on: Staphylococcus aureus SA1199; experiment: broth micro-dilution MIC; format: cell-based
Protocol: as §2

Entercoccus faecium 276 = experiment: broth micro-dilution MIC; format: cell-based
Protocol: as §2

[12] = tested on: Staphylococcus aureus SA1199A; experiment: broth micro-dilution MIC; format: cell-based
Protocol: as §2

[13] = tested on: vancomycin-susceptible enterococci; experiment: broth micro-dilution, mean geometric MIC; format: cell-based, Enterococcus faecium and Enterococcus faecalis; settings: enterococci, 24-hour incubation
[14] = tested on: vancomycin-resistant enterococci; experiment: broth micro-dilution, mean geometric MIC; format: cell-based, Enterococcus faecium and Enterococcus faecalis; settings: enterococci, 24-hour incubation
[15] = tested on: Staphylococcus aureus S13E; format: cell-based
Protocol: as §2

[16] = tested on: Staphylococcus aureus SA1199B; format: cell-based
Protocol: as §2

[17] = tested on: Streptococcus pneumoniae P1; experiment: broth micro-dilution MIC; format: cell-based
Protocol: as §1

[18] = tested on: Staphylococcus aureus 446; experiment: broth micro-dilution MIC; format: cell-based
Protocol: as §2

[19] = tested on: Streptococcus pyogenes C203; experiment: broth micro-dilution MIC; format: cell-based
Protocol: as §2

CNC(CC(C)C)C(=O)NC1C(=O)NC(CC(N)=O)C(=O)NC2C(=O)NC3C(=O)NC(C(=O)NC(C(=O)O)c4cc(O)cc(O)c4-c4cc3ccc4O)C(OC3CC(C)(N)C(O)C(C)O3)c3ccc(c(Cl)c3)Oc3cc2cc(c3OC2OC(CO)C(O)C(O)C2OC2CC(C)(NCc3ccc(Oc4ccccc4[N+](=O)[O-])cc3)C(O)C(C)O2)Oc2ccc(cc2Cl)C1O (stereo not shown) [Compound 70] was tested, and the MIC [1] was 2 µg/mL (≈ 1.1 µM), the MIC [2] was 2 µg/mL (≈ 1.1 µM) and the MIC (Entercoccus faecium 2041) was no more than 0.06 µg/mL. The MIC [3] was 16 µg/mL (≈ 8.79 µM), the MIC (Entercoccus faecium 180) was 0.5 µg/mL (≈ 0.275 µM) and the MIC [4] was 2 µg/mL (≈ 1.1 µM). The MIC [5] was 0.25 µg/mL (≈ 0.137 µM), the MIC [6] was no more than 0.06 µg/mL and the MIC [7] was no more than 0.06 µg/mL. For the same compound, the MIC [8] was 0.5 µg/mL (≈ 0.275 µM), the MIC [9] was no more than 0.06 µg/mL and the MIC [10] was no more than 0.06 µg/mL. It also gave an MIC [11] of no more than 0.06 µg/mL, an MIC (Entercoccus faecium 276) of no more than 0.06 µg/mL and an MIC [12] of no more than 0.06 µg/mL. For the same compound, the “mean geometric MIC, Vancomycin Sensitive Strains” value [13] was 0.092 µg/mL, the “mean geometric MIC, Vancomycin Resistant Strains” value [14] was 2.0 µg/mL and the MIC [15] was no more than 0.06 µg/mL. The MIC [16] was no more than 0.06 µg/mL.

Work on CNC(CC(C)C)C(=O)NC1C(=O)NC(CC(N)=O)C(=O)NC2C(=O)NC3C(=O)NC(C(=O)NC(C(=O)O)c4cc(O)cc(O)c4-c4cc3ccc4O)C(OC3CC(C)(N)C(O)C(C)O3)c3ccc(c(Cl)c3)Oc3cc2cc(c3OC2OC(CO)C(O)C(O)C2OC2CC(C)(NCc3ccc(I)s3)C(O)C(C)O2)Oc2ccc(cc2Cl)C1O (stereo not shown) [Compound 74] yielded an MIC [1] of 4 µg/mL (≈ 2.2 µM), an MIC [2] of 4 µg/mL (≈ 2.2 µM) and an MIC (Entercoccus faecium 2041) of no more than 0.06 µg/mL. For the same compound, the MIC [3] was 0.5 µg/mL (≈ 0.276 µM), the MIC [17] was no more than 0.06 µg/mL and the MIC (Entercoccus faecium 180) was 0.5 µg/mL (≈ 0.276 µM). For the same compound, the MIC [4] was no more than 0.06 µg/mL, the MIC [5] was 0.5 µg/mL (≈ 0.276 µM) and the MIC [6] was no more than 0.06 µg/mL. The MIC [18] was 4 µg/mL (≈ 2.2 µM), the MIC [7] was no more than 0.06 µg/mL and the MIC [8] was 1 µg/mL (≈ 0.551 µM). The MIC [9] was no more than 0.06 µg/mL, the MIC [19] was no more than 0.06 µg/mL and the MIC [10] was no more than 0.06 µg/mL. The MIC [11] was no more than 0.06 µg/mL, the MIC [12] was no more than 0.06 µg/mL and the “mean geometric MIC, Vancomycin Resistant Strains” value [14] was 11 µg/mL. For the same compound, the MIC [15] was 0 µg/mL and the MIC [16] was 1 µg/mL (≈ 0.551 µM).

CNC(CC(C)C)C(=O)NC1C(=O)NC(CC(N)=O)C(=O)NC2C(=O)NC3C(=O)NC(C(=O)NC(C(=O)O)c4cc(O)cc(O)c4-c4cc3ccc4O)C(OC3CC(C)(N)C(O)C(C)O3)c3ccc(c(Cl)c3)Oc3cc2cc(c3OC2OC(CO)C(O)C(O)C2OC2CC(C)(NCc3ccc(OCCOCCCl)cc3)C(O)C(C)O2)Oc2ccc(cc2Cl)C1O (stereo not shown) [Compound 75] showed an MIC [1] of 4 µg/mL (≈ 2.22 µM), an MIC [2] of 2 µg/mL (≈ 1.11 µM) and an MIC (Entercoccus faecium 2041) of no more than 0.06 µg/mL. It also gave an MIC [3] of 2 µg/mL (≈ 1.11 µM), an MIC [17] of no more than 0.06 µg/mL and an MIC (Entercoccus faecium 180) of 0.5 µg/mL (≈ 0.277 µM). It also gave an MIC [4] of 4 µg/mL (≈ 2.22 µM), an MIC [5] of 0.5 µg/mL (≈ 0.277 µM) and an MIC [6] of no more than 0.06 µg/mL. It also gave an MIC [18] of 2 µg/mL (≈ 1.11 µM), an MIC [7] of no more than 0.06 µg/mL and an MIC [8] of 1 µg/mL (≈ 0.554 µM). The MIC [9] was no more than 0.06 µg/mL, the MIC [19] was no more than 0.06 µg/mL and the MIC [10] was no more than 0.06 µg/mL. It also gave an MIC [11] of 2 µg/mL (≈ 1.11 µM), an MIC (Entercoccus faecium 276) of no more than 0.06 µg/mL and an MIC [12] of no more than 0.06 µg/mL. For the same compound, the “mean geometric MIC, Vancomycin Sensitive Strains” value [13] was 0.50 µg/mL, the “mean geometric MIC, Vancomycin Resistant Strains” value [14] was 16 µg/mL and the MIC [15] was 0 µg/mL. It also gave an MIC [16] of 0.5 µg/mL (≈ 0.277 µM).
